Measurements published in patent EP4005558A1, “ANTICANCER AGENT AND METHOD FOR PREPARATION OF POROUS SILICA PARTICLE” (Lemonex Inc., priority 2019, dated 2022).

What was measured:
[1] = test system: MCF-7 cells expressing LC3-GFP; test: Number of GFP-LC3 puncta (autophagy induction); format: cell-based; details: MCF-7 expressing LC3-GFP, treated 6 hours in serum-free medium
Protocol: Using lipofectamine 2000, LC3-GFP plasmid was transfected into MCF-7 cells. Transfected MCF-7 was selected with 800 µg/mL of G418 for 3 months. […] 100,000 MCF-7 cells expressing LC3-GFP were seeded.
40 µg of dye-labeled particles and 4 µg of bec1 peptide were mixed, and the cells were treated for 6 hours in a serum-free medium. Cells were fixed with 4% PFA, and nuclei were stained with DAPI. Images were obtained with a Delta-vision microscope, and the number of GFP-LC3 puncta was measured in 100 cells for each group.
LC3 protein is a biomarker involved in the elongation process of autophagosome, and its expression level is known to increase with the progress of autophagosome.

MCF-7 cells = test: Cytotoxicity, MTT assay; format: cell-based; details: treatment for 1 day, compared to the non-treated group
Protocol: MCF-7 cells were seeded at 10,000 cells/well in 96-well cell culture plates. After 1 day, different concentrations of each particle (4 to 500 µg/mL) were treated with a serum-containing medium in each well for 1 day. Thereafter, the culture was performed for 4 hours while replacing the above medium with a serum-free medium containing 10 µl of MTT assay kit, and the supernatant was aspirated. DMSO was added to each well to dissolve formazan, and reacted for 1 hour. The absorbance was measured at a wavelength of 570 nm, and the cell viability was calculated as a relative value to that of the untreated group.
Cell viability was compared by MTT assay after treatment with FabBALL and Becl peptide carrying Becl peptide on MCF-7 cells.

**Q.** CGGTNVFNATFHIWHSGQFGT [Becl peptide] was tested. Which GFP puncta [1] did it give?
**A.** very little amount

**Q.** What about the cell viability (MCF-7 cells) of the same sequence?
**A.** not significantly varied
